Paper PMC9398908, “GLP-1-mediated delivery of tesaglitazar improves obesity and glucose metabolism in male mice” (Nature Metabolism, 2022)

Key:
[1] = target: T1, hGLP-1R (Homo sapiens, UniProt P43220); experiment: hGLP-1R-Rluc8 co-localization with lysosome marker Lamp1-mNeonGreen (BRET) in HEK293T cells; type: cell-based; conditions: HEK293 cells; Fig. 1g; in words
T1 construct: host or cells: HEK293T, transient transfection
Method: (§1) HEK293T cells (700,000 per well) were seeded in six-well plates and incubated to 70% confluency in DMEM (10% FBS, 1% Pen/Strep). Twenty-four hours following seeding, transient transfections were performed using Lipofectamine 2000 (catalogue no. 11668019, Invitrogen) according to the manufacturer’s protocol without including additional transformation carrier DNA.
Twenty-four hours following transfection, HEK293T cells or MIN6 cells were washed with PBS and resuspended in FluoroBrite phenol red-free complete media (catalogue no. A1896701, Life Technologies) containing 5% FBS and 2 mM of L-glutamine (catalogue no. 25030081, Life Technologies). 100,000 cells per well were plated into poly-D-lysine-coated (catalogue no. P6403, Sigma-Aldrich) 96-well white polystyrene LumiNunc plates (catalogue no. 10072151, Thermo Fisher Scientific). After 24 h, the media was replaced with PBS (catalogue no. 10010056, Gibco) containing 10 μM of coelenterazine-h (catalogue no. S2011, Promega) or 1:500 dilution of NanoGlo (catalogue no. N1110, Promega). BRET measurements were taken every 30 s–2 min using a PHERAstar FS multi-mode microplate reader. […] The resulting ligand-specific ratiometric BRET signals were normalized to vehicle producing the ‘ligand-induced BRET ratio’[37], followed by an additional normalization step to well-specific baseline readings.

[2] = target: T2, PPARγ2/RXR (Homo sapiens, UniProt P37231); experiment: RXR-Rluc8 / PPARγ2-YFP heterodimerization (BRET) in hGLP-1R(−) HEK293T cells; type: cell-based; conditions: GLP-1R (-), 1μM
T2 construct: host or cells: HEK293T, with (A8) or without (A9) co-expressed hGLP-1R
T2 sequence (P37231 1-505): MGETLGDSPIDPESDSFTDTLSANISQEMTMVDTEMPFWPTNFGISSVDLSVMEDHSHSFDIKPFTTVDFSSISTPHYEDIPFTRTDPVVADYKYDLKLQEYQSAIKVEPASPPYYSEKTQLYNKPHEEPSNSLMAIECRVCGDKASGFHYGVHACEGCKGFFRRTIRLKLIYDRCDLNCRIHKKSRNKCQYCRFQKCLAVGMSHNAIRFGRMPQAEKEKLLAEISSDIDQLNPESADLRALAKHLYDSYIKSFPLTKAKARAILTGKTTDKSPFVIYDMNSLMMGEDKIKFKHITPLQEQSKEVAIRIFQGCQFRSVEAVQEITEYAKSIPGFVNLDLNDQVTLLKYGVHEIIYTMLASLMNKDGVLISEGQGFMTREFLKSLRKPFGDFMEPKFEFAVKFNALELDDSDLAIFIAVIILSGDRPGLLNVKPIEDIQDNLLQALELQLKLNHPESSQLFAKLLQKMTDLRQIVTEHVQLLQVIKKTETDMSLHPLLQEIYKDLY
T2 sequence (P19793 1-462 partner): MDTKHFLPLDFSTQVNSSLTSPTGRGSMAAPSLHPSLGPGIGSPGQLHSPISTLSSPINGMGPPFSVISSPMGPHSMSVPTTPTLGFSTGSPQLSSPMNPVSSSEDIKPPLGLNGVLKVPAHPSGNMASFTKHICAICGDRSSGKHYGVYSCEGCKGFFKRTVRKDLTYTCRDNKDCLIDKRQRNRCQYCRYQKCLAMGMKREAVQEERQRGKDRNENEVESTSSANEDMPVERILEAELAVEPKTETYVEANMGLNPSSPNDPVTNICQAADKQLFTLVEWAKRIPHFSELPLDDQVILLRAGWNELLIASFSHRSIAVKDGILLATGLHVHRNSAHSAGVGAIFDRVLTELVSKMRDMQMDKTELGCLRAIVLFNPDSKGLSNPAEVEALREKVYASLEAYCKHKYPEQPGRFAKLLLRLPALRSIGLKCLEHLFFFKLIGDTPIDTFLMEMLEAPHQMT
Method: as §1
Twenty-four hours following transfection, HEK293T cells or MIN6 cells were washed with PBS and resuspended in FluoroBrite phenol red-free complete media (catalogue no. A1896701, Life Technologies) containing 5% FBS and 2 mM of L-glutamine (catalogue no. 25030081, Life Technologies). 100,000 cells per well were plated into poly-D-lysine-coated (catalogue no. P6403, Sigma-Aldrich) 96-well white polystyrene LumiNunc plates (catalogue no. 10072151, Thermo Fisher Scientific). After 24 h, the media was replaced with PBS (catalogue no. 10010056, Gibco) containing 10 μM of coelenterazine-h (catalogue no. S2011, Promega) or 1:500 dilution of NanoGlo (catalogue no. N1110, Promega). BRET measurements were taken every 30 s–2 min using a PHERAstar FS multi-mode microplate reader. Baseline measurements were taken after an initial 5 min of incubation with coelenterazine-h or NanoGlo-containing PBS after which cells were then treated with either vehicle (PBS) or respective ligands. The resulting ligand-specific ratiometric BRET signals were normalized to vehicle producing the ‘ligand-induced BRET ratio’[37], followed by an additional normalization step to well-specific baseline readings. Ligand-induced measurements on the temporal scale is represented as the subsequent measurement after time point zero. Positive or negative incremental AUC (+iAUC/−iAUC) were calculated where noted. Each experiment was independently performed at least three times, each with at least three technical replicates for each group.
Untagged hGLP-1R was purchased from Sino Biological Inc. (catalogue no. HG13944-UT), hGLP-1R-GFP was a kind gift from D. Hodson (University of Birmingham), and hGLP-1R-Rluc8 was a kind gift from P. Sexton (Monash University, Melbourne, Australia). Gαs recruitment to the GLP-1R-GFP was quantified using mini-Gαs, a protein probe that translocates to ligand-bound Gαs-coupled G-protein coupled receptors. NES-Nluc-MiniGαs was a gift from K. Pfleger (Harry Perkins Institute of Medical Research, Nedlands, Western Australia, Australia). Intracellular cAMP was measured using the YFP-Epac-Rluc CAMYEL sensor[39]. hGLP-1R-RLUC8 internalization was quantified using the intracellular plasma membrane marker Venus-KRAS[40]. […] GLP-1R-Rluc8 lysosomal colocalization was measured using Lamp1-mNeonGreen. […] Time-dependent RXR/PPARγ heterodimerization was measured using RXR-Rluc8 and PPARγ2-YFP, both of which were kind gifts from V. Ollendorf[41].

T1 sequence (P43220 24-463): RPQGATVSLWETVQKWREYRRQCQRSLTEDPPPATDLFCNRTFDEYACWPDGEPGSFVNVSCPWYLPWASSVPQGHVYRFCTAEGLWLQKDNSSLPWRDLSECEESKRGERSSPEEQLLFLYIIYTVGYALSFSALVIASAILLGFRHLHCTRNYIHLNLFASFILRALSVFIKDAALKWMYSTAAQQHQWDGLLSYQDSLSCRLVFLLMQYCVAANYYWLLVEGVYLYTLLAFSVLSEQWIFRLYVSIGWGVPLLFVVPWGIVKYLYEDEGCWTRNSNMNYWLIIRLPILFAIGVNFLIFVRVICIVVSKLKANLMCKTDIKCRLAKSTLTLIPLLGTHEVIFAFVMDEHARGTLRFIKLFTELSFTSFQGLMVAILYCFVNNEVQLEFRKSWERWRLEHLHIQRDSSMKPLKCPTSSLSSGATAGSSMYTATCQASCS

lysosomal GLP-1R appearance (GLP-1R-Lamp1 colocalization) [1]: had no effect
RXR/PPARγ Heterodimerization (AUC), +iAUC ([2]; replicate 1): 59.69
RXR/PPARγ Heterodimerization (AUC), +iAUC ([2]; replicate 2): 107.20
RXR/PPARγ Heterodimerization (AUC), +iAUC ([2]; replicate 3): 71.87
RXR/PPARγ Heterodimerization (AUC), +iAUC ([2]; replicate 4): 114.00
Compound: CCO[C@@H](Cc1ccc(OCCc2ccc(OS(C)(=O)=O)cc2)cc1)C(=O)O [tesaglitazar, (S)-2-ethoxy-3-(4-(4-((methylsulfonyl)oxy)phenethoxy)phenyl) propanoic acid]
